Test system: asymmetric di-methyl PABP1 in RKO cells
Test: RKO methylation assay, In Cell Western (ICW) for asymmetric di-methyl PABP1
Type: cell-based
Conditions: Homo sapiens, RKO, Cellular potencies, ICW PABP1me2a
Method in brief: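 RKO cells treated with compound for 48 h at 37 °C, then fixed, permeabilized and immunostained for asymmetric di-methyl PABP1, with DRAQ5 as DNA stain. Infrared 700/800 nm signal ratio normalized to DMSO and 20 μM reference-compound controls; IC50 from triplicate wells.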

Row | SMILES | IC50 [µM]
1 | CNCC(O)COc1cccc(-c2nc(-c3c(C)noc3C)c(C)c(N3CCO[C@H](CO)C3)n2)c1 (stereo partly shown) [Example 125-1a] | < 5
2 | CNCC(O)COc1ccc(C)c(-c2nc(NC3CCN(C(=O)OC)CC3)c(C)c(-c3c(C)noc3C)n2)c1 (stereo not shown) [Example 125-3] | < 5
3 | CNC[C@@H](O)COc1ccc(Cl)c(-c2nc(OC[C@@H]3CCOC3)c(C)c(-c3c(C)noc3C)n2)c1 [Example 126-3] | < 5
4 | CNCC(O)COc1cccc(-c2nc(-c3c(C)noc3C)c(C)c(N3CCO[C@H](CN(C)C(=O)OC)C3)n2)c1 (stereo partly shown) [Example 127-1a] | < 5
5 | CNC[C@@H](O)COc1ccc(Cl)c(-c2nc(NC3CCOCC3)c(C)c(-c3c(C)noc3C)n2)c1 [Example 127-3] | < 5
6 | CCOC(=O)N1CC[C@@H](Nc2nc(-c3cc(OC[C@H](O)CNC)ccc3Cl)nc(-c3c(C)noc3C)c2Cl)C1 [Example 129-3] | < 5
7 | CNC[C@@H](O)COc1ccc(Cl)c(-c2nc(NC[C@H]3CCCO3)c(C)c(-c3c(C)noc3C)n2)c1 [Example 130-3] | < 5
8 | CNCC(O)COc1cccc(-c2nc(-c3c(C)noc3C)cc(N3CCNC(C(F)(F)F)C3)n2)c1 (stereo not shown) [Example 131-1a] | < 5
9 | CNCC(O)COc1cccc(-c2nc(-c3c(C)noc3C)cc(N3CCN(CC(F)(F)F)CC3)n2)c1 (stereo not shown) [Example 132-1a] | < 5
10 | CNCC(O)COc1cccc(-c2nc(-c3c(C)noc3C)cc(N3CCN(C(=O)C4CC4)CC3)n2)c1 (stereo not shown) [Example 133-1a] | < 5
11 | CNCC(O)COc1cccc(-c2nc(-c3c(C)noc3C)c(C)c(N3CCN(C(=O)OCCOC)CC3)n2)c1 (stereo not shown) [Example 134-1a] | < 5
12 | CNC[C@@H](O)COc1ccc(Cl)c(-c2nc(NC[C@H]3COCCN3C(=O)OC(C)C)c(C)c(-c3c(C)noc3C)n2)c1 [Example 134-3] | < 5
13 | CNCC(O)COc1cccc(-c2nc(N[C@H]3CC[C@H](O)C3)c(C)c(-c3c(C)noc3C)n2)c1 (stereo partly shown) [Example 135-1a] | < 5
14 | CNCC(O)COc1cc(NC)cc(-c2nc(NC3CCOCC3)c(C)c(-c3c(C)noc3C)n2)c1 (stereo not shown) [Example 136-1a] | < 5
15 | CCOC(=O)N1CCC[C@@H]1CCNc1nc(-c2cc(OC[C@H](O)CNC)ccc2Cl)nc(-c2c(C)noc2C)c1C [Example 136-3] | < 5
16 | CCOC(=O)N1CCC[C@H]1CCNc1nc(-c2cc(OC[C@H](O)CNC)ccc2Cl)nc(-c2c(C)noc2C)c1C [Example 137-3] | < 5
17 | CNC[C@@H](O)COc1ccc(Cl)c(-c2nc(-c3c(C)noc3C)c(C)c(N3CCC4(CCN(C5CC5)C4)C3)n2)c1 (stereo partly shown) [Example 138-3] | < 5
18 | CNC[C@@H](O)COc1ccc(Cl)c(-c2nc(N[C@@H]3CCN(C4CC4)[C@H](C)C3)c(C)c(-c3c(C)noc3C)n2)c1 [Example 139-3] | < 5
19 | CNC[C@@H](O)COc1ccc(Cl)c(-c2nc(-c3c(C)noc3C)c(C)c(N3Cc4cnn(C)c4C3)n2)c1 [Example 140-3] | < 5
20 | CCC1(CNc2nc(-c3cccc(OCC(O)CNC)c3)nc(-c3c(C)noc3C)c2C)CCOCC1 (stereo not shown) [Example 141-1a] | < 5
21 | CNC[C@@H](O)COc1ccc(Cl)c(-c2nc(-c3c(C)noc3C)c(C)c(N3CCc4nc(C)sc4C3)n2)c1 [Example 141-3] | < 5
22 | CNCC(O)COc1cccc(-c2nc(NCC3CCOCC3)c(Cl)c(-c3c(C)noc3C)n2)c1 (stereo not shown) [Example 142-1a] | < 5

Row | SMILES | IC50 [µM]
23 | CNCC(O)COc1cccc(-c2nc(NCC3CCOCC3)c(F)c(-c3c(C)noc3C)n2)c1 (stereo not shown) [Example 143-1a] | < 5
24 | CNCC(O)COc1cccc(-c2nc(-c3c(C)noc3C)cc(N3CCN(CC(F)(F)F)[C@H](C)C3)n2)c1 (stereo partly shown) [Example 144-1a] | < 5
25 | CNC[C@@H](O)COc1ccc(Cl)c(-c2nc(N[C@H]3C[C@@H](OC)C3)c(C)c(-c3c(C)noc3C)n2)c1 [Example 144-3] | < 5
26 | CNCC(O)COc1cccc(-c2nc(-c3c(C)noc3C)cc(N3CCN(CCF)[C@H](C)C3)n2)c1 (stereo partly shown) [Example 145-1a] | 5 to 10
27 | CNCC(O)COc1cccc(-c2nc(-c3c(C)noc3C)cc(N3CCN(C(=O)N(C)C)[C@H](C)C3)n2)c1 (stereo partly shown) [Example 146-1a] | < 5
28 | CNCC(O)COc1cccc(-c2nc(-c3c(C)noc3C)cc(N3CCN(S(C)(=O)=O)[C@H](C)C3)n2)c1 (stereo partly shown) [Example 147-1a] | < 5
29 | CNC[C@@H](O)COc1ccc(Cl)c(-c2nc(N[C@H]3CCN(C)C[C@H]3F)c(C)c(-c3c(C)noc3C)n2)c1 [Example 147-3] | < 5
30 | CNCC(O)COc1cccc(-c2nc(-c3c(C)noc3C)c(C)c(N3CCO[C@@H](CN(C)C)C3)n2)c1 (stereo partly shown) [Example 148-1a] | < 5
31 | CNC[C@@H](O)COc1ccc(Cl)c(-c2nc(N[C@H]3CO[C@@H](C)C3)c(Cl)c(-c3c(C)noc3C)n2)c1 [Example 148-3] | < 5
32 | CNCC(O)COc1cccc(-c2nc(-c3c(C)noc3C)c(C)c(N3CCO[C@@H](CN(C)C(=O)OC)C3)n2)c1 (stereo partly shown) [Example 149-1a] | < 5
33 | CNC[C@@H](O)COc1ccc(Cl)c(-c2nc(N[C@H]3CCO[C@@H](C)C3)c(Cl)c(-c3c(C)noc3C)n2)c1 [Example 149-3] | < 5
34 | CNCC(O)COc1cccc(-c2nc(-c3c(C)noc3C)c(C)c(N3CCO[C@@H](CN(C)S(C)(=O)=O)C3)n2)c1 (stereo partly shown) [Example 150-1a] | 5 to 10
35 | CCOC(=O)N1CC[C@H](Nc2nc(-c3cc(OC[C@H](O)CNC)ccc3Cl)nc(-c3c(C)noc3C)c2C)C1 [Example 150-3] | < 5
36 | CCOC(=O)N1CC[C@H](Nc2nc(-c3cc(OC[C@H](O)CNC)ccc3Cl)nc(-c3c(C)noc3C)c2Cl)C1 [Example 151-3] | < 5
37 | CNC[C@@H](O)COc1ccc(Cl)c(-c2nc(N[C@H]3CO[C@@H](C)C3)c(C)c(-c3c(C)noc3C)n2)c1 [Example 152-3] | < 5
38 | CC[C@H]1CN(c2nc(-c3cccc(OCC(O)CNC)c3)nc(-c3c(C)noc3C)c2C)CCN1S(=O)(=O)CC (stereo partly shown) [Example 154-1a] | < 5
39 | CNC[C@@H](O)COc1ccc(Cl)c(-c2nc(-c3c(C)noc3C)c(C)c(N3Cc4cc(Cl)cnc4C3)n2)c1 [Example 156-3] | < 5
40 | CNCC(O)COc1cccc(-c2nc(NC(C)C3CCOCC3)c(C)c(-c3c(C)noc3C)n2)c1 (stereo not shown) [Example 157-1a] | < 5
41 | CNC[C@@H](O)COc1ccc(Cl)c(-c2nc(-c3c(C)noc3C)c(C)c(N3Cc4cc(F)cnc4C3)n2)c1 [Example 157-3] | < 5
42 | CNC[C@@H](O)COc1ccc(Cl)c(-c2nc(-c3c(C)noc3C)c(C)c(N3CCC4(CC3)CN(C3CC3)C4)n2)c1 [Example 158-3] | < 5
43 | CNCC(O)COc1cccc(-c2nc(NC3(C)CCOCC3)c(F)c(-c3c(C)noc3C)n2)c1 (stereo not shown) [Example 159-1a] | 10 to 20

Next, values leading:

Row | IC50 [µM] | SMILES
44 | 5 to 10 | CNCC(O)COc1cccc(-c2nc(-c3c(C)noc3C)c(C)c(N3CCO[C@H](CN(C)S(C)(=O)=O)C3)n2)c1 (stereo partly shown) [Example 126-1a]
45 | < 5 | CNC[C@@H](O)COc1ccc(Cl)c(-c2nc(N[C@H]3CCO[C@@H](C)C3)c(C)c(-c3c(C)noc3C)n2)c1 [Example 128-3]
46 | < 5 | CNC[C@@H](O)COc1ccc(Cl)c(-c2nc(NC[C@@H]3CCCO3)c(C)c(-c3c(C)noc3C)n2)c1 [Example 131-3]
47 | < 5 | CNC[C@@H](O)COc1ccc(Cl)c(-c2nc(N[C@@H]3CCO[C@H](C)C3)c(C)c(-c3c(C)noc3C)n2)c1 [Example 132-3]
48 | < 5 | CCOC(=O)N1CCC[C@@H]1COc1nc(-c2cc(OC[C@H](O)CNC)ccc2Cl)nc(-c2c(C)noc2C)c1C [Example 133-3]
49 | < 5 | CNC[C@@H](O)COc1ccc(Cl)c(-c2nc(N[C@@H]3CCN(C(=O)OC)[C@H](C)C3)c(C)c(-c3c(C)noc3C)n2)c1 [Example 135-3]
50 | < 5 | CNCC(O)COc1ccc(Cl)c(-c2nc(NC3(C)CCOCC3)c(Cl)c(-c3c(C)noc3C)n2)c1 (stereo not shown) [Example 137-1a]
51 | < 5 | CNCC(O)COc1cccc(-c2nc(-c3c(C)noc3C)cc(N3CCN(CCOC)CC3)n2)c1 (stereo not shown) [Example 139-1a]
52 | < 5 | CNCC(O)COc1cccc(-c2nc(NCC3(N(C)C)CCOCC3)c(C)c(-c3c(C)noc3C)n2)c1 (stereo not shown) [Example 140-1a]
53 | < 5 | CNC[C@@H](O)COc1ccc(Cl)c(-c2nc(-c3c(C)noc3C)c(C)c(N3Cc4nccnc4C3)n2)c1 [Example 142-3]
54 | < 5 | CNC[C@@H](O)COc1ccc(Cl)c(-c2nc(N[C@H]3C[C@H](OC)C3)c(C)c(-c3c(C)noc3C)n2)c1 [Example 143-3]
55 | 10 to 20 | CNCC(O)COc1cccc(-c2nc(NC3CCOCC3)c(C)c(-c3c(C)noc3CO)n2)c1 (stereo not shown) [Example 145-3]
56 | < 5 | CNC[C@@H](O)COc1ccc(Cl)c(-c2nc(NC3CC4(C3)CN(C(=O)OC)C4)c(C)c(-c3c(C)noc3C)n2)c1 [Example 146-3]
57 | < 5 | CNCC(O)COc1cccc(-c2nc(-c3c(C)noc3C)c(C)c(N3CCO[C@H](CN(C)C)C3)n2)c1 (stereo partly shown) [Example 151-1a]
58 | < 5 | CC[C@@H]1CN(c2nc(-c3cccc(OCC(O)CNC)c3)nc(-c3c(C)noc3C)c2C)CCN1S(=O)(=O)CC (stereo partly shown) [Example 152-1a]
59 | < 5 | CC[C@@H]1CN(c2nc(-c3cccc(OCC(O)CNC)c3)nc(-c3c(C)noc3C)c2C)CCN1S(C)(=O)=O (stereo partly shown) [Example 153-1a]
60 | < 5 | CCOC(=O)N1CCCC[C@@H]1CNc1nc(-c2cc(OC[C@H](O)CNC)ccc2Cl)nc(-c2c(C)noc2C)c1Cl [Example 153-3]
61 | < 5 | CCOC(=O)N1CCCC[C@@H]1CNc1nc(-c2cc(OC[C@H](O)CNC)ccc2Cl)nc(-c2c(C)noc2C)c1C [Example 154-3]
62 | < 5 | CC[C@H]1CN(c2nc(-c3cccc(OCC(O)CNC)c3)nc(-c3c(C)noc3C)c2C)CCN1S(C)(=O)=O (stereo partly shown) [Example 155-1a]
63 | < 5 | CNC[C@@H](O)COc1ccc(Cl)c(-c2nc(N[C@@H]3CCO[C@H](C)C3)c(Cl)c(-c3c(C)noc3C)n2)c1 [Example 155-3]
64 | 5 to 10 | CNC[C@@H](O)COc1cccc(-c2nc(-c3c(C)noc3C)c(C)c(-c3cn(S(C)(=O)=O)c4ncncc34)n2)c1 [Example 156-1a]
